Experimental data as given in PMC12888861, “Antibacterial activity of enmetazobactam against Acinetobacter spp.: a molecular dissection of mechanism of action and resistance determinants” (Antimicrobial Agents and Chemotherapy, 2025).

Experiments:
[1] = system: carbapenem-susceptible A. baumannii isolates (n = 54); assay: MIC, broth microdilution (EUCAST), carbapenem-susceptible A. baumannii isolates; type: cell-based, Acinetobacter baumannii; details: for MIC: in combinations ETZ fixed at 8 mg/L
Text: The bacterial strains used in this study comprised 208 clinical isolates from the Spanish National Acinetobacter spp. 2020 Multicenter Collection, which was previously characterized in detail by our research group, including whole-genome sequencing, phylogenetics studies, clonal dynamics, and resistance mechanisms ([2], [29]). Additionally, a collection of A. baumannii ATCC 17978 transformants coding the blaOXA-23, blaOXA-24/40, blaOXA-51, blaOXA-58, blaOXA-143, and blaOXA-201 genes, previously constructed and described by our group ([30]), was used to determine the activity of enmetazobactam against strains carrying the main CHDLs of A. baumannii.
The antimicrobial susceptibility of the 208 Acinetobacter spp. isolates was assessed using the broth microdilution method, as described in the European Committee on Antimicrobial Susceptibility Testing (EUCAST) v.15 guidelines (http://www.eucast.org/clinical_breakpoints). […] MICs for enmetazobactam alone were assessed as well. […] Subsequently, MIC testing was also conducted with a collection of A. baumannii ATCC 17978 transformants expressing clinically relevant OXA-like carbapenemase genes.
The A. baumannii ATCC 19606 strain was used as the reference strain in all susceptibility experiments, in duplicate assays. Antibiotics were purchased from Sigma-Aldrich, except enmetazobactam and durlobactam, which were obtained from Advanz Pharma and MedChemExpress, respectively.

[2] = system: A. baumannii ATCC 19606 cells; assay: Cell morphology assay, bright-field microscopy; type: cell-based, Acinetobacter baumannii; details: A. baumannii ATCC 19606, overnight exposure at 1× MIC
Description: In order to confirm the involvement of PBPs as targets of enmetazobactam, cell morphology assays involving exposure to enmetazobactam and sulbactam were performed following the methodology described in Supplementary materials and methods.
To confirm the involvement of PBPs as targets of enmetazobactam, the cellular morphology of A. baumannii ATCC 19606 reference strain was analyzed after exposure to the compound at different concentrations. Bright-field microscopy was used to monitor the cell morphology. […] For microscopic visualization, aliquots of each sample were obtained, stained with crystal violet solution and observed using an Olympus BX61 microscope (Olympus).
Changes in cell morphology were determined on the basis of alterations in septal integrity, abnormal elongation, spheroplast formation and filamentation, patterns previously associated with the selective inhibition of PBP1, PBP2 and PBP3 in Gram-negative bacilli. Specifically, PBP1 inhibition has been linked to cell lysis, PBP2 inhibition has been linked to spherification, and PBP3 inhibition to defective cell division and filament formation (1, 2). The results were qualitatively compared across different treatments to infer the potential selectivity of enmetazobactam for specific PBPs.

[3] = Acinetobacter baumannii, carbapenem-susceptible A. baumannii isolates (n = 54), ETZ fixed 8 mg/L in combinations

C[C@@H](O)[C@H]1C(=O)N2C(C(=O)O)=C(SCCN=CN)C[C@H]12 [imipenem]
rounded and spherical cells: cell morphology [2]
1 µg/mL: MIC ([1]; Acinetobacter baumannii, isolate Ab142, ST 1, ADC-like, OXA-69)
0.12 µg/mL: MIC ([1]; Acinetobacter baumannii, isolate Ab1, ST 164, ADC-6, OXA-91) | MIC ([1]; Acinetobacter baumannii, isolate Ab11, ST 239, ADC-2, OXA-51) | MIC ([1]; Acinetobacter baumannii, isolate Ab61, ST 1639, ADC-7, OXA-64) | MIC ([1]; Acinetobacter baumannii, isolate Ab79, ST 106, ADC-11, OXA-78) | MIC ([1]; Acinetobacter baumannii, isolate Ab80, ST 2182, ADC-6, OXA-208) | MIC ([1]; Acinetobacter baumannii, isolate Ab81, ST 25, ADC-79, OXA-64) | MIC ([1]; Acinetobacter baumannii, isolate Ab93, ST 25, ADC-79, OXA-64) | MIC ([1]; Acinetobacter baumannii, isolate Ab95, ST 582, ADC-5, OXA-317) | MIC ([1]; Acinetobacter baumannii, isolate Ab96, ST 582, ADC-5, OXA-317) | MIC ([1]; Acinetobacter baumannii, isolate Ab100, ST 145, ADC-58, OXA-343) | MIC ([1]; Acinetobacter baumannii, isolate Ab112, ST 193, ADC-like, OXA-120) | MIC ([1]; Acinetobacter baumannii, isolate Ab124, ST 2176, ADC-2, OXA-64) | MIC ([1]; Acinetobacter baumannii, isolate Ab127, ST 2176, ADC-2, OXA-64) | MIC ([1]; Acinetobacter baumannii, isolate Ab128, ST 2176, ADC-2, OXA-64) | MIC ([1]; Acinetobacter baumannii, isolate Ab130, ST 32, ADC-79, OXA-100) | MIC ([1]; Acinetobacter baumannii, isolate Ab131, ST 687, ADC-like, OXA-208) | MIC ([1]; Acinetobacter baumannii, isolate Ab132, ST 1112, ADC-79, OXA-89) | MIC ([1]; Acinetobacter baumannii, isolate Ab136, ST 2183, ADC-like, OXA-66) | MIC ([1]; Acinetobacter baumannii, isolate Ab143, ST 1328, ADC-76, OXA-408) | MIC ([1]; Acinetobacter baumannii, isolate Ab167, ST 1623, ADC-like, OXA-345) | MIC ([1]; Acinetobacter baumannii, isolate Ab170, ST 2110, ADC-4, OXA-338) | MIC ([1]; Acinetobacter baumannii, isolate Ab188, ST 203, ADC-6, OXA-217, PDC-1) | MIC ([1]; Acinetobacter baumannii, isolate Ab195, ST 1, ADC-11, OXA-69) | MIC ([1]; Acinetobacter baumannii, isolate Ab200, ST 1336, ADC-2, OXA-51) | MIC ([1]; Acinetobacter baumannii, isolate Ab202, ST 1, ADC-11, OXA-69) | MIC ([1]; Acinetobacter baumannii, isolate Ab203, ST 221, ADC-6, OXA-88) | MIC ([1]; Acinetobacter baumannii, isolate Ab213) | MIC50 [1, 3]
98.1: MIC distribution 0.25 ([1]; cumulative share of carbapenem-susceptible A. baumannii isolates (n = 54) at MIC 0.25 mg/L, ETZ fixed 8 mg/L in combinations) | MIC distribution 0.5 ([1]; cumulative share of carbapenem-susceptible A. baumannii isolates (n = 54) at MIC 0.5 mg/L, ETZ fixed 8 mg/L in combinations)
11.1: MIC distribution ≤0.06 ([1]; cumulative share of carbapenem-susceptible A. baumannii isolates (n = 54) at MIC ≤0.06 mg/L, ETZ fixed 8 mg/L in combinations)
100: MIC distribution 1 ([1]; cumulative share of carbapenem-susceptible A. baumannii isolates (n = 54) at MIC 1 mg/L, ETZ fixed 8 mg/L in combinations) | MIC distribution 2 ([1]; cumulative share of carbapenem-susceptible A. baumannii isolates (n = 54) at MIC 2 mg/L, ETZ fixed 8 mg/L in combinations) | MIC distribution 4 ([1]; cumulative share of carbapenem-susceptible A. baumannii isolates (n = 54) at MIC 4 mg/L, ETZ fixed 8 mg/L in combinations) | MIC distribution 8 ([1]; cumulative share of carbapenem-susceptible A. baumannii isolates (n = 54) at MIC 8 mg/L, ETZ fixed 8 mg/L in combinations) | MIC distribution 16 ([1]; cumulative share of carbapenem-susceptible A. baumannii isolates (n = 54) at MIC 16 mg/L, ETZ fixed 8 mg/L in combinations) | MIC distribution ≥32 ([1]; cumulative share of carbapenem-susceptible A. baumannii isolates (n = 54) at MIC ≥32 mg/L, ETZ fixed 8 mg/L in combinations)
0.25 µg/mL: MIC ([1]; Acinetobacter baumannii, isolate Ab34, ST 2182, ADC-2, OXA-130) | MIC ([1]; Acinetobacter baumannii, isolate Ab38, ST 866, ADC-2, OXA-385) | MIC ([1]; Acinetobacter baumannii, isolate Ab40, ST 2176, ADC-2, OXA-64) | MIC ([1]; Acinetobacter baumannii, isolate Ab50, ST 2176, ADC-2, OXA-64) | MIC ([1]; Acinetobacter baumannii, isolate Ab57, ST 1470, ADC-58, OXA-106) | MIC ([1]; Acinetobacter baumannii, isolate Ab58, ST 6, ADC-2, OXA-94) | MIC ([1]; Acinetobacter baumannii, isolate Ab62, ST 265, ADC-2, OXA-91) | MIC ([1]; Acinetobacter baumannii, isolate Ab67, ST 1, ADC-11, OXA-69) | MIC ([1]; Acinetobacter baumannii, isolate Ab110, ST 1623, ADC-3, OXA-70) | MIC ([1]; Acinetobacter baumannii, isolate Ab139, ST 54, ADC-like, OXA-365) | MIC ([1]; Acinetobacter baumannii, isolate Ab149, ST 1112, ADC-6, OXA-407) | MIC ([1]; Acinetobacter baumannii, isolate Ab150, ST 2184, ADC-like, OXA-64) | MIC ([1]; Acinetobacter baumannii, isolate Ab152, ST 132, ADC-2, OXA-120) | MIC ([1]; Acinetobacter baumannii, isolate Ab168, ST 1470, ADC-75, OXA-402) | MIC ([1]; Acinetobacter baumannii, isolate Ab185, ST 2, ADC-26, OXA-66) | MIC ([1]; Acinetobacter baumannii, isolate Ab190, ST 2186, ADC-6, OXA-413) | MIC ([1]; Acinetobacter baumannii, isolate Ab206, ST 2187, ADC-58, OXA-69) | MIC ([1]; Acinetobacter baumannii, isolate Ab209) | MIC ([1]; Acinetobacter baumannii, isolate Ab218) | MIC ([1]; Acinetobacter baumannii, isolate Ab220) | MIC90 [1, 3]
61.1: MIC distribution 0.12 [1]
≤ 0.06 µg/mL: MIC ([1]; Acinetobacter baumannii, isolate Ab158, ST 2034, ADC-2, OXA-217) | MIC ([1]; Acinetobacter baumannii, isolate Ab163, ST 132, ADC-2, OXA-120) | MIC ([1]; Acinetobacter baumannii, isolate Ab172, ST 2185, ADC-5, OXA-217) | MIC ([1]; Acinetobacter baumannii, isolate Ab187, ST 105, ADC-2, OXA-430) | MIC ([1]; Acinetobacter baumannii, isolate Ab189, ST 1405, ADC-3, OXA-120) | MIC ([1]; Acinetobacter baumannii, isolate Ab193, ST 164, ADC-6, OXA-91)
